In publication PMC5746060, “General and Modular Strategy for Designing Potent, Selective, and Pharmacologically Compliant Inhibitors of Rhomboid Proteases” (Cell Chemical Biology, 2017):
Non-standard residues stand in square brackets, D forms with d. Residues, ends and D or L forms follow the SMILES beside them. ξ: configuration not given here. *: point of attachment. X3 = C[C@H](N*)C(=O)NS(C)(=O)=O; X4 = C[C@H](N*)C(=O)c1nccs1; boroAla = C[C@H](N*)B(O)O; ξA = CC(N)C(=O)O; CF3 = FC(F)(F)*; CH2Cl = ClC*

Target: T1, Escherichia coli rhomboid GlpG (Escherichia coli, UniProt P09391)
T1 construct: made in house; host or cells: E. coli C41(DE3)
T1 sequence (P09391 whole entry): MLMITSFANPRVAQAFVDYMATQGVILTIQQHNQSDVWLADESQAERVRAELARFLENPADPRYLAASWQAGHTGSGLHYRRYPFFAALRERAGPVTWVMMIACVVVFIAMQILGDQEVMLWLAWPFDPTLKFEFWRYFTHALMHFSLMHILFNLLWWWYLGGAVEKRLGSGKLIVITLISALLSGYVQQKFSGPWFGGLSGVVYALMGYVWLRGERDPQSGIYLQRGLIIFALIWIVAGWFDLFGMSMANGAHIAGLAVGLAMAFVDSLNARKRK
Test: in vitro GlpG inhibition assay with fluorogenic transmembrane peptide substrate (apparent IC50)
Assay type: biochemical
Settings: for IC50: 1 hr preincubation, 10 μM fluorogenic substrate KSp35, 0.05% (w/v) DDM; for fold decrease in potency compared with the parent compound 9: N-terminal truncation series
Excerpt: To gain insight into these preferences and their possible interactions, we have generated tetra- and pentapeptidyl chloromethylketones (CMK or cmk henceforth) harboring amino acids preferred in positions P5 to P1 by the Escherichia coli rhomboid GlpG (GlpG henceforth), using the sequence background of the Providencia TatA ([Stevenson et al., 2007]), represented by the parent compound Ac-IATA-cmk. We measured the inhibitory properties of this series of compounds using a newly developed in vitro assay employing a fluorogenic transmembrane peptide substrate ([Ticha et al., 2017]) that faithfully represents a native rhomboid substrate.
Figure 1 The Potency of Substrate-Derived Inhibitors Can be Improved by Modifying the Amino acid Sequence of the P5 to P1 Region (A) The parent inhibitor Ac-IATA-cmk was modified by introducing strongly preferred amino acids ([Zoll et al., 2014]) into the P4, P3, P2, and P5 positions to yield the listed compounds. Their apparent IC50 values were measured with 1 hr preincubation using 10 μM fluorogenic substrate KSp35 and 0.05% (w/v) DDM. The reported values are best-fit means with SD representative of 2–3 measurements. (B) The sequence-optimized peptidyl chloromethylketones were soaked into the native crystals of GlpG and structures of the complexes were solved by X-ray diffraction (for statistics, see Table S1). […] Note that in the Ac-RVRHA-cmk structure (right), the side chain of the Arg residue in the P5 position of the inhibitor has not been modeled due to poor or missing electron density peaks. (C) Interactions of RVRHA-cmk with GlpG were analyzed by Ligplot+ ([Laskowski and Swindells, 2011]). Ligands are shown as thick sticks with carbons in green, proteins as thin sticks with carbons in gray, hydrogen bonds as yellow dashed lines, and amino acids involved in van der Waals contacts are highlighted as transparent surfaces. The inhibitor forms covalent bonds with S201 and H254 via the chloromethylketone warhead, and it hydrogen bonds with the backbone of residues 196–198 from the L3 loop and residues 248–250 from the L5 loop. van der Waals contacts with the inhibitor are formed by the residues from the L3 loop of GlpG, by S193 and Q189 from TMD3, and by F146 and M120 from the L1 loop that pack against the Val side chain of the P4 position of the inhibitor, as observed previously ([Zoll et al., 2014]). (D) The conformations of peptide inhibitors bound to the active site of GlpG were compared by performing structural alignment of the complexes of VRHAcmk (PDB: 5MT7), RVRHAcmk (PDB: 5MT8), IATAcmk (PDB: 4QO2), and VRMAcho (PDB: 5F5B) in PyMOL ([Schrodinger, 2012]). […] The backbone of the ligands in all complexes has virtually identical conformation with the exception of the distortion of the oxyanion by the chloromethylketone, and the biggest differences are found in the conformation of the P2 side chain, which is not surprising, because almost any side chain can be accommodated in this position ([Zoll et al., 2014]). TEXT PRINTED IN THE PICTURE: (A) AcIATAcmk: IC50 (μM): 213 | (A) AcVATAcmk: IC50 (μM): 450 | (A) AcIAHAcmk: IC50 (μM): 200 | (A) AcIRTAcmk: IC50 (μM): 84 | (A) AcVRHAcmk: IC50 (μM): 27 | (A) AcRVRHAcmk: IC50 (μM): 8
Figure 2 A Screen of Electrophilic Warheads for the Inhibition of Rhomboid Proteases The optimized parent sequence Ac-RVRHA was linked to electrophilic warheads commonly used for targeting serine proteases (reviewed in [Hedstrom, 2002], [Walker and Lynas, 2001]). The apparent IC50 values of the compounds were measured in 0.05% DDM using 10 μM substrate KSp35 ([Ticha et al., 2017]) with 1 hr preincubation. Given are the mean values of 2–3 measurements. […]

Molecule: CC[C@H](C)[C@H](NC(C)=O)C(=O)N[C@@H](C)C(=O)N[C@@H](Cc1c[nH]cn1)C(=O)N[C@@H](C)C(=O)CCl [AcIAHAcmk] (Ac-IAHA-CH2Cl)
- IC50: 200 µM

Molecule: CC[C@H](C)[C@H](NC(C)=O)C(=O)N[C@@H](C)C(=O)N[C@H](C(=O)N[C@@H](C)C(=O)CCl)[C@@H](C)O [AcIATAcmk, reference compound] (Ac-IATA-CH2Cl)
- IC50: 213 µM

Molecule: CC[C@H](C)[C@H](NC(C)=O)C(=O)N[C@@H](CCCNC(=N)N)C(=O)N[C@H](C(=O)N[C@@H](C)C(=O)CCl)[C@@H](C)O [AcIRTAcmk] (Ac-IRTA-CH2Cl)
- IC50: 84 µM

Molecule: CC(=O)N[C@@H](CCCNC(=N)N)C(=O)N[C@H](C(=O)N[C@@H](CCCNC(=N)N)C(=O)N[C@@H](Cc1c[nH]cn1)C(=O)N[C@@H](C)C(=O)CCl)C(C)C [AcRVRHAcmk] (Ac-RVRHA-CH2Cl)
- IC50: 8 µM

Molecule: CC(=O)N[C@H](C(=O)N[C@@H](C)C(=O)N[C@H](C(=O)N[C@@H](C)C(=O)CCl)[C@@H](C)O)C(C)C [AcVATAcmk] (Ac-VATA-CH2Cl)
- IC50: 450 µM

Molecule: CC(=O)N[C@H](C(=O)N[C@@H](CCCNC(=N)N)C(=O)N[C@@H](Cc1c[nH]cn1)C(=O)N[C@@H](C)C(=O)CCl)C(C)C [AcVRHAcmk] (Ac-VRHA-CH2Cl)
- IC50: 27 µM

Molecule: CC(=O)N[C@@H](CCCNC(=N)N)C(=O)N[C@H](C(=O)N[C@@H](CCCNC(=N)N)C(=O)N[C@@H](Cc1c[nH]cn1)C(=O)N[C@@H](C)C(=O)NS(C)(=O)=O)C(C)C [acylsulfonamide, AcRVRHA-acylsulfonamide] (Ac-RVRH-X3)
- IC50: > 1000 µM

Molecule: CC(=O)N[C@@H](CCCNC(=N)N)C(=O)N[C@H](C(=O)N[C@@H](CCCNC(=N)N)C(=O)N[C@@H](Cc1c[nH]cn1)C(=O)N[C@@H](C)B(O)O)C(C)C [boronate, AcRVRHA-boronate] (Ac-RVRH-boroAla)
- IC50: 8 µM

Molecule: CC(=O)N[C@H](C(=O)N[C@@H](CCCNC(=N)N)C(=O)N[C@@H](Cc1c[nH]cn1)C(=O)N[C@@H](C)C(=O)C(=O)NCCc1ccccc1)C(C)C [compound 12]
- IC50: 0.55 µM

Molecule: CC(=O)N[C@@H](CCCNC(=N)N)C(=O)N[C@@H](Cc1c[nH]cn1)C(=O)N[C@@H](C)C(=O)C(=O)NCCc1ccccc1 [compound 13, Ac-RHA-CONH-phenylethyl]
- IC50: 9 µM
- fold decrease in potency compared with the parent compound 9 (ratio of apparent IC50 values): ~20 fold

Molecule: CC(=O)N[C@@H](Cc1c[nH]cn1)C(=O)N[C@@H](C)C(=O)C(=O)NCCc1ccccc1 [compound 14]
- IC50: ~65 µM
- fold decrease in potency compared with the parent compound 9 (ratio of apparent IC50 values): ~150 fold

Molecule: CC(=O)N[C@@H](C)C(=O)C(=O)NCCc1ccccc1 [compound 15, Ac-A-CONH-phenylethyl]
- IC50: > 1000 µM
- fold decrease in potency compared with the parent compound 9 (ratio of apparent IC50 values): ~2,250 fold

Molecule: CC(=O)N[C@@H](CCCNC(=N)N)C(=O)N[C@H](C(=O)N[C@@H](CCCNC(=N)N)C(=O)N[C@@H](Cc1c[nH]cn1)C(=O)N[C@@H](C)C(=O)c1nccs1)C(C)C [thiazolylketone, AcRVRHA-thiazolylketone] (Ac-RVRH-X4)
- IC50: > 1000 µM

Molecule: CC(=O)N[C@@H](CCCNC(=N)N)C(=O)N[C@H](C(=O)N[C@@H](CCCNC(=N)N)C(=O)N[C@@H](Cc1c[nH]cn1)C(=O)NC(C)C(=O)C(F)(F)F)C(C)C (stereo partly shown) [trifluoromethylketone, AcRVRHA-trifluoromethylketone] (Ac-RVRH[ξA]-CF3)
- IC50: > 1000 µM

Molecule: Ac-RVRHA-NH2 [compound 1, AcRVRHA-CONH2]
- IC50: 203 µM
- fold less potent than the peptidyl boronate (ratio of apparent IC50 values): about 25 fold
